Consider one molecule from patent publication US20160089443A1, “PROTEIN-GRAPHENE NANOCOMPOSITE DRUG CARRIER” (NATIONAL CHIAO TUNG UNIVERSITY, priority 2014, published 2016).

Series [1] deals with in vivo tumors (RG2 cells). The experiment in a line: Relative tumor volume after treatment with NIR irradiation. As to conditions: mice, 24 hours after the treatment. As for the experimental part:
In Experimental example 7, the targeting efficiency of the drug carrier of the present invention was tested by experiments on in vivo tumors (RG2 cells) of mice. The tumor temperature was also observed while undergoing NIR irradiation. Further, the effects on the volume of the tumors and the mass of the mice were observed through different conditions of treatment.
Referring to FIG. 15A, which is a relative tumor volume vs. time graph of mice after treated by different conditions. The treating conditions were PBS+NIR irradiation, pure DOX+NIR irradiation, non-drug loaded carriers+NIR irradiation, and carriers loaded with DOX+NIR irradiation, and changes in the relative tumor volume along time of which are represented by lines 910, 920, 930, and 940, respectively. The relative tumor volume was observed after 24 hours later of the treatment, and used the tumor volume right after the treatment as a base. […] As for the treatments of the PBS+NIR irradiation, i.e. line 910, and the pure DOX+NIR irradiation, i.e. line 920, the tumor volumes were increased. […] The treatment of the PBS+NIR irradiation, i.e. line 910, could not treat the tumor because there was no drug being injected. The treatment of the pure DOX+NIR irradiation, i.e. line 920, was difficult to reach the tumor region to have the effect of therapy because the drug was not encapsulated in carriers. […]

The nature of series [2]: Mass of mice after treatment. It is filed as in vivo. As to conditions: with NIR irradiation. From the text:
Further, referring to FIG. 15B, which is a mass vs. time graph of mice after treated by different conditions. The treating conditions were PBS+NIR irradiation, pure DOX+NIR irradiation, non-drug loaded carriers+NIR irradiation, and carriers loaded with DOX+NIR irradiation, and changes in the mass of the mice along time of which are represented by lines 950, 960, 970, and 980, respectively.

Another series relates to RG2 cells. The experiment in a line: Toxicity tests for photothermal therapy in RG2 cells.

Each structure is given as a SMILES string. ≈ marks a conversion by molar mass, not a printed value.

Regarding `COc1cccc2c1C(=O)c1c(O)c3c(c(O)c1C2=O)C[C@@](O)(C(=O)CO)C[C@@H]3O[C@H]1C[C@H](N)[C@H](O)[C@H](C)O1` [DOX, doxorubicin], the relative tumor volume entry in series [1] is reported as “increased”. Moreover, in series [2], the “mass of mice over time” value is recorded as “no obvious difference in mass”. In addition, the cell death result with RG2 cells (RG2 cells, pure DOX 0.25 μg/mL (bar 840)) is listed as “about 50%”. Further, in the series on RG2 cells (RG2 cells, without NIR irradiation (bars 870, 880)), the “cell viability at 0.05 μg/mL DOX compared with 0.25 μg/mL” value is reported as “increased”. In addition, the IC50 in the series with RG2 cells (Rattus norvegicus, RG2, read-out: half maximal inhibitory concentration (IC50)) was roughly 0.25 µg/mL (≈ 0.46 µM).
